Tests used:
[1] = system: M14 cell line (Melanoma); test: Cell viability assay (CellTiter-Glo), M14; details: Homo sapiens; M14, 72 hours; read-out: IC50 Cell-based assay (M14)
Method: (§1) The CellTiter-Glo® assay was purchased from Promega. All the reagents and plates for cell culture were purchased Invitrogen Life Technology and Nunc, respectively.
(§2) To investigate whether a compound is able to inhibit the activity of MEK in cells, a mechanism-based assay using COLO205 cell line (Colon cancer) and M14 cell line (Melanoma) were developed. COLO205 cells and M14 cells were cultured in a tissue culture flask to 80% confluence in RPMI1640 plus 10% fetal bovine serum. Cells were collected and plated onto 96 well culture plates at 2×10^2 cells/well. Plates were incubated overnight at 37° C. in a 5% CO2 incubator to allow cells to adhere. Various concentrations of MEK inhibitors were added to the plates and incubated at 37° C. for 72 hours. After 72 hours, 20 μl of CellTiter-Glo® reagent was added to each well. Mix by orbital shaking for 2 min, then incubates at room temperature for 15 min. Cell lysate were transferred into a 96 well white plate (Thermo). Plates were read out by EnVision Multilabel Plate Reader. The data were analyzed using GraphPad Prism5.

[2] = system: COLO205 cell line (Colon cancer); test: Cell viability assay (CellTiter-Glo), COLO205; details: Homo sapiens, COLO 205; COLO205, 72 hours; read-out: IC50 Cell-based assay (COLO205)
Method: as §1, §2

[3] = biological target: Mek1 (Homo sapiens (Human), UniProt Q02750); test: Mek1 kinase assay (LANCE); format: biochemical; details: Mek1 0.5 nM, 50 μM ATP, 90 min at 23° C.; read-out: IC50 Enzymatic assay
Chain of Mek1 (Q02750 whole entry, species assumed): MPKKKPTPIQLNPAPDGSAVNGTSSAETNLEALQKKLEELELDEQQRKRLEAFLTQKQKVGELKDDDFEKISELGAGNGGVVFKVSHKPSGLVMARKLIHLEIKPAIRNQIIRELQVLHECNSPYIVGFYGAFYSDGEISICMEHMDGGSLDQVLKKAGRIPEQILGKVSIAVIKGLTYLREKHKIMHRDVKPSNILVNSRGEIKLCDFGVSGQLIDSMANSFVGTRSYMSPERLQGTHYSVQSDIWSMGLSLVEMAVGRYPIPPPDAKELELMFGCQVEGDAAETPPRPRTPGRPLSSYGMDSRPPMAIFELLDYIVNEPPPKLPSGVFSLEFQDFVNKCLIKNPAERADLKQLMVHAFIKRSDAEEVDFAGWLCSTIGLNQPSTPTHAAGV
Excerpt: The LANCE Ultra assay kit was purchased from PerkinElmer. The ULight™-MBP peptide, Europium labeled Antibody and LANCE Detection buffer were purchased from PerkinElmer. The APT and dimethylsulfoxide were purchased from Sigma-Aldrich. The 5× Kinase buffer were purchased from Invitrogen.
A Mek1 kinase assay (LANCE, PerkinElmer) was developed for supporting compound profiling and lead optimization. […] Then the phosphorylated Erk1 was able to phosphorylate ULight™-MBP peptide (PerkinElmer). The phosphorylated peptide was detected by Europium-anti-phospho-MBP (PerkinElmer). […] After quenching the reaction with […], 2 nM Europium-anti-phospho-MBP was added to the reaction mixture and incubated for 60 min, followed by a detection using EnVision Multilabel Plate Reader (PerkinElmer). The IC50 values were derived through a curve fitting using GraphPad Prism5.

[4] = Example 3 toxicity study by oral administration for 8 days; format: in vivo, Sprague-Dawley rats; details: for Body weight: escalating 5-320 mg/kg over 8 days
Method: To evaluate the potential toxicity, test article, Example 3, was administered orally for 8 days to Sprague-Dawley rats.
Male and female Sprague-Dawley rats, 6 weeks of age at onset of the study, were assigned to 2 experimental groups as follow: (1) 2 male rats treated 5, 5, 10, 20, 40, 80, 160, 320 mg/kg each day with doses escalating for 8 days (2) 2 female rats treated 5, 5, 10, 20, 40, 80, 160, 320 mg/kg each day with doses escalating for 8 days. Each article was in vehicle (Captisol).
Body weight was measured on a daily basis to determine toxicity. All groups were sacrificed at 9th day.

Compound	IC50 [1] [µM]	IC50 [2] [µM]	IC50 [3] [µM]	Body weight ([4]; female rats)	Mortality ([4]; male and female rats, escalating 5, 5, 10, 20, 40, 80, 160, 320 mg/kg over 8 days)	Body weight ([4]; male rats)
Cn1c(Nc2ccc(I)cc2F)c(C(=O)NOCCO)c2ncccc2c1=O [Example 1, 7-(2-fluoro-4-iodophenylamino)-N-(2-hydroxyethoxy)-6-methyl-5-oxo-5,6-dihydro-1,6-naphthyridine-8-carboxamide]	< 0.5	< 0.5	< 1	–	–	–
Cn1c(Nc2ccc(I)cc2F)c(-c2nnc(N)o2)c2ncccc2c1=O [Example 2, 8-(5-amino-1,3,4-oxadiazol-2-yl)-7-(2-fluoro-4-iodophenylamino)-6-methyl-1,6-naphthyridin-5(6H)-one]	< 50	< 50	< 10	–	–	–
Cn1c(Nc2ccc(I)cc2F)c(C(=O)NOCCO)c2c(c1=O)CCC2 [Example 3, 3-(2-fluoro-4-iodophenylamino)-N-(2-hydroxyethoxy)-2-methyl-1-oxo-2,5,6,7-tetrahydro-1H-cyclopenta[c]pyridine-4-carboxamide]	< 0.01	< 0.005	< 0.5	decreased after 6 days	No mortality was observed	decreased at day 6 and day 8
Cn1c(Nc2ccc(I)cc2F)c(C(N)=O)c2c(c1=O)CCC2 [Example 4, 3-(2-fluoro-4-iodophenylamino)-2-methyl-1-oxo-2,5,6,7-tetrahydro-1H-cyclopenta[c]pyridine-4-carboxamide]	< 0.5	< 0.05	< 5	–	–	–
C[C@H](O)CONC(=O)c1c2c(c(=O)n(C)c1Nc1ccc(I)cc1F)CCC2 [Example 5, (S)-3-(2-fluoro-4-iodophenylamino)-N-(2-hydroxypropoxy)-2-methyl-1-oxo-2,5,6,7-tetrahydro-1H-cyclopenta[c]pyridine-4-carboxamide]	< 0.05	< 0.005	< 0.5	–	–	–
C[C@@H](O)CONC(=O)c1c2c(c(=O)n(C)c1Nc1ccc(I)cc1F)CCC2 [Example 6, (R)-3-(2-fluoro-4-iodophenylamino)-N-(2-hydroxypropoxy)-2-methyl-1-oxo-2,5,6,7-tetrahydro-1H-cyclopenta[c]pyridine-4-carboxamide]	< 0.1	< 0.01	< 1	–	–	–
Cn1c(Nc2ccc(I)cc2F)c(C(=O)NOCC(C)(C)O)c2c(c1=O)CCC2 [Example 7, 3-(2-fluoro-4-iodophenylamino)-N-(2-hydroxy-2-methylpropoxy)-2-methyl-1-oxo-2,5,6,7-tetrahydro-1H-cyclopenta[c]pyridine-4-carboxamide]	< 0.5	< 0.005	< 5	–	–	–
Cn1c(Nc2ccc(I)cc2F)c(C(=O)NOCC(O)CO)c2c(c1=O)CCC2 (centres unmarked) [Example 8, N-(2,3-dihydroxypropoxy)-3-(2-fluoro-4-iodophenylamino)-2-methyl-1-oxo-2,5,6,7-tetrahydro-1H-cyclopenta[c]pyridine-4-carboxamide]	< 0.05	< 0.005	< 0.5	–	–	–
Cn1c(Nc2ccc(I)cc2F)c(-c2nnc(N)o2)c2c(c1=O)CCC2 [Example 9, 4-(5-amino-1,3,4-oxadiazol-2-yl)-3-(2-fluoro-4-iodophenylamino)-2-methyl-2,5,6,7-tetrahydro-1H-cyclopenta[c]pyridin-1-one]	< 1	< 0.05	< 5	–	–	–
Cn1c(Nc2ccc(I)cc2F)c(C(=O)NOCCO)c2c(c1=O)CC(C)(C)C2 [Example 10, 3-(2-fluoro-4-iodophenylamino)-N-(2-hydroxyethoxy)-2,6,6-trimethyl-1-oxo-2,5,6,7-tetrahydro-1H-cyclopenta[c]pyridine-4-carboxamide]	< 0.1	< 0.05	–	–	–	–
Cn1c(Nc2ccc(I)cc2Cl)c(C(=O)NOCCO)c2c(c1=O)CCC2 [Example 11, 3-(2-chloro-4-iodophenylamino)-N-(2-hydroxyethoxy)-2-methyl-1-oxo-2,5,6,7-tetra hydro-1H-cyclopenta[c]pyridine-4-carboxamide]	< 0.05	< 0.005	< 0.5	–	–	–
